Measurements reported in patent US20260152527A1, “NOVEL MELANOCORTIN ANALOGS” (priority 2022, published 2026).
Values after ≈ are worked out from the molar mass of the structure shown. Read-outs that look alike come from different tables or passages of the source. Positions of bridges follow the written chain, without caps; N, C: chain ends. Non-standard residues stand in square brackets, D forms with d. Residues, ends and D or L forms follow the SMILES beside them. Triazole bridges read from a SMILES are 1,4-linked. *: point of attachment. dPhe(4-CF3) = N[C@H](Cc1ccc(C(F)(F)F)cc1)C(=O)O; Benzoyl(3,5-(OH)2) = O=C(c1cc(O)cc(O)c1)*; Lys(N3) = [N-]=[N+]=NCCCC[C@H](N)C(=O)O; dPhe(4-F) = N[C@H](Cc1ccc(F)cc1)C(=O)O; NMeH = CN[C@@H](Cc1c[nH]cn1)C(=O)O; NMeR = CN[C@@H](CCCNC(=N)N)C(=O)O; dNMeF = CN[C@H](Cc1ccccc1)C(=O)O; Aad = N[C@@H](CCCC(=O)O)C(=O)O; Nle = CCCC[C@H](N)C(=O)O; Pra = C#CC[C@H](N)C(=O)O

What was measured:
[1] = rabbit
Excerpt: (§1) To evaluate the effects of the peptide formulations following topical administration and subconjunctival injection a study in rabbits was undertaken. Animals were acclimated to the study and, upon completion of the acclimation period, each animal was physically examined for determination of suitability for study participation. Animals determined to be in good health were randomized into study groups to achieve averaged mean body weight in each group. (N=24; 3 animals per study group) Animals will be uniquely identified by corresponding cage card number and ear tag.
(§2) For topical ocular dosing the designated peptide formulations (35 L) were administered to the eye of each animal using a calibrated pipette. With the animal manually restrained, the upper eyelid of the eye was gently elevated to expose the cornea. Treatment was then be applied to the cornea without contacting the eye with the pipette tip. One topical drop was applied per eye for four days. Tissue collection (aqueous humor) occurred 30 minutes after last dose.
(§3) A veterinary ophthalmologist performed complete ocular examinations using a slit lamp biomicroscope and indirect ophthalmoscope to evaluate ocular surface morphology and anterior and posterior segment inflammation on all animals prior to injection to serve as a baseline for enrollment into the study as well as on specific study days. Animals were not tranquilized for the examinations.
(§4) At least 1.0 mL of whole blood was drawn from the marginal ear vein or cardiac puncture (terminal bleed only) into K2EDTA tubes for plasma collection. After collection, the tubes were gently mixed by inverting the tubes 5-8 times. Blood samples were stored on wet ice prior to plasma processing. The samples were centrifuged at 4° C. for 10 minutes at 2000 g in a swinging bucket refrigerated centrifuge. Within 20 minutes of the blood collection time, the clear plasma was transferred to prelabelled polypropylene tubes, snap frozen, and stored frozen at approximately −80° C.
(§5) Following euthanasia, eyes were enucleated and marked at the 12:00 position. Aqueous humor was removed via a 27 or 30 gauge syringe following a 10-15 second rinse with PBS and blot with Kimwipe, and snap frozen by immersing in liquid nitrogen. The whole globe was then snap frozen in liquid nitrogen and stored at −80° C. to be held for potential dissection. All samples were placed into individual vials and weighed. The plasma and aqueous humor were collected.
(§6) The peptides were evaluated for their ocular tolerability and pharmacokinetics following repeated (QID×4 days) topical instillation or a single subconjunctival injection in rabbits. The study examined penetration into the anterior chamber and concentrations in the plasma by measuring at a single time point.

human recombinant MC4R = target: T1, human recombinant MC4R (Homo sapiens, UniProt P32245); experiment: Ca2+ signalling functional assay, MC4R stable cell line (CHO-K1/Gα15); format: cell-based; conditions: for IC50: calcium flux functional assay
T1 construct: host or cells: CHO-K1/Gα15
Protocol: The Ca^2+ signalling functional assay was performed on a human recombinant MC4R stable cell line (CHO-K1/Gα15, GenScript). The cells were cultured at 37° C. and 5% CO2 with culture medium (90% Ham's F-12K (Kaighn's)+10% FBS+8 μg/mL Puromycin+100 μg/mL Hygromycin B). Cells were washed with PBS and then detached by incubation with 0.05% (w/v) Trypsin EDTA at 37° C. for 2-5 mins. Detached cells were suspended in Ham's F-12K (Kaighn's) (containing 10% FBS) and a 50 μL cell suspension was seeded into each well of a 384-well assay plate at a density of 15,000 cells/well. Cells were allowed to settle overnight at 37° C., 5% CO2. The next day, the assay plate was centrifuged and the media was replaced with dye (1×) in assay buffer (containing HBSS, HEPES 20 mM and probenecid 1 mM) and incubated for 1 h at 37° C. […] Then, 100 nL of compounds were transferred to the compound plate by the Echo machine. 30 μL assay buffer was added to the compounds plate and then shaken for 20 to 40 minutes. The plates were placed on the FLIPR and 15 μL of the compound was added to each well, then calcium flux signal was measured.

human recombinant MC5R = target: T2, human recombinant MC5R (Homo sapiens, UniProt P33032); experiment: Ca2+ signalling functional assay, MC5R stable cell line (CHO-K1/Ga15); format: cell-based
T2 construct: host or cells: CHO-K1/Ga15
Protocol: The Ca^2+ signalling functional assay was performed on a human recombinant MC5R stable cell line (CHO-K1/Ga15, GenScript). The cells were cultured at 37° C. and 5% C02 with culture medium (90% Ham's F-12K (Kaighn's)+10% FBS+400 μg/mL G418+100 μg/mL Hygromycin B). Cells were washed with PBS and then detached by incubation with 0.05% (w/v) Trypsin EDTA at 37° C. for 2 to 5 mins. Detached cells were suspended in Ham's F-12K (Kaighn's) (containing 10% FBS) and a 50 μL cell suspension is seeded into each well of a 384-well assay plate at a density of 15,000 cells/well. Cells were allowed to settle overnight at 37° C., 5% CO2. […] Then, 100 nL of compounds were transferred to the compound plate by the Echo machine. Thirty microliter assay buffer was added to the compounds plate and then shaken for 20-40 minutes. The plates were placed on the FLIPR and 15 μL of the compound was added to each well, then calcium flux signal was measured.

[2] = Thermodynamic solubility study in water; format: physicochemical
Protocol: The study was conducted in water. Water was added into compound powder to make a 10 mg/mL solution. Sample tubes were shaken at the vibrator for 1 hour (1000 rpm) and then equilibrated overnight at room temperature. Samples were centrifuged at 12000 rpm for 10 min to precipitate undissolved particles. Supernatants were transferred from tubes to a new plate. An aliquot of the supernatant after centrifugation was taken from each well, then analyzed by LC-MS/MS. The concentration of the supernatants was quantified by a standard curve.

human recombinant MC1R = target: T3, human recombinant MC1R (Homo sapiens, UniProt Q01726); experiment: cyclic AMP (cAMP) functional assay, MC1R stable cell line (CHO-K1); format: cell-based; conditions: for IC50: cAMP functional assay;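 for all read-outs here: cells with test compound for 60 min at room temperature in buffer containing IBMX, then cAMP quantified by Eu-cAMP tracer and ULight anti-cAMP detection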
T3 construct: host or cells: CHO-K1
Protocol: The cyclic AMP (cAMP) functional assay was performed on a human recombinant MC1R stable cell line (CHO-K1, GenScript). The cells were cultured at 37° C. and 5% CO2 with culture medium (90% Ham's F-12K (Kaighn's)+10% FBS+400 μg/mL G418). […] Then, 100 nL of compounds were transferred to the assay plate by the Echo machine. Cells were washed with PBS and then detached by incubation with 0.05% (w/v) Trypsin EDTA at 37° C. for 2 to 5 mins. Cells were collected with stimulation buffer (1×HBSS with 5 mM HEPES+0.2 mM IBMX+0.1% BSA) and 10 ul of cells (the density of 2,500 cells/well) solution was transferred to assay plate, centrifuged at 600 rpm for 3 min and then incubated with compounds at room temperature for 60 min. After that, 5 μL 4×Eu-cAMP tracer solution and 5 μL 4×ULight™-anti-cAMP solution was added into the cells, centrifuged at 600 rpm for 3 min and incubated for 60 min. The cAMP signal was detected with Envision® Multimode Plate Reader (PerkinElmer).

[3] = In vivo topical administration tissue distribution study, minipig; conditions: topical 5 mg/mL BID
Protocol: Animals were acclimated to the study environment for a minimum of 1 week. […] Examinations included, but were not limited to, the skin and external ears, eyes, and abdomen, neurological behavior, and general body condition.
Treatment was administered twice daily (BID) with approximately 6-8 hours between each BID dose, with tissue collection one hour after the last dose. Tissues and blood collected include plasma, aqueous humor, iris/ciliary body, vitreous humor, eye cup containing the retinal pigment epithelium, choroid, sclera, cornea, retina, optic nerve, and brain.
Blood (3 mL) was collected IV or ICAR for terminal collections and placed into K2EDTA tubes for plasma acquisition. […] Blood samples were stored on wet ice for up to 30 minutes prior to plasma processing.
Following euthanasia, eyes were enucleated and rinsed twice with fresh ice-cold PBS. Aqueous humor was removed via a 27 or 30 G syringe, weighed in polypropylene screw cap tubes, and snap frozen by immersing in liquid nitrogen. Eyes were dissected while frozen. All tissues were placed into individual vials, weighed, and snap frozen. The brain was collected and weighed. The hypothalamus, hippocampus and remaining brain was then dissected and weighed. 100-200 mg of each section was placed in pre-weighed polypropylene tubes, reweighed, and snap frozen. The remaining tissue was discarded. All tissues were stored frozen at −80° C. on dry ice.
The observed distribution pattern was consistent with that observed in the rat study. […] As also shown in FIG. 14, all three peptides were detected in the CNS of the animals, with no behavioral or metabolic changes noted in these animals despite the significant exposure. The foregoing results therefor confirm that the peptides disclosed herein can be delivered topically for retinal indications.

human recombinant MC3R = target: T4, human recombinant MC3R (Homo sapiens, UniProt P41968); experiment: Ca2+ signalling functional assay, MC3R stable cell line (CHO-K1/Gα15); format: cell-based; conditions: calcium flux functional assay
T4 construct: host or cells: CHO-K1/Gα15
Protocol: The Ca^2+ signalling functional assay was performed on a human recombinant MC3R stable cell line (CHO-K1/Gα15, GenScript). The cells were cultured at 37° C. and 5% CO2 with culture medium (90% Ham's F-12K (Kaighn's)+10% FBS+200 μg/mL Zeocin+100 μg/mL Hygromycin B). Cells were washed with PBS and then detached by incubation with 0.05% (w/v) Trypsin EDTA at 37° C. for 2-5 mins. Detached cells were suspended in Ham's F-12K (Kaighn's) (containing 10% FBS) and a 50 μL cell suspension was seeded into each well of a 384-well assay plate at a density of 10,000 cells/well. Cells were allowed to settle overnight at 37° C., 5% CO2. […] The compounds and reference compound ACTH were diluted in 4 folds starting from 50 uM. Then, 500 nL of compounds were transferred to the compound plate by the Echo machine. 30 uL assay buffer was added into the compounds plate and then shaken for 20-40 minutes. The plates were then placed on the FLIPR Tetra High-Throughput Cellular Screening System (FLIPR®, Molecular Devices) and 15 μL of the compound was added to each well, then calcium flux signal was measured.

in vivo = conditions: rabbit, topical or ocular, 3 mg/ml solution, 35 L per eye, Concentrations (ng/mL) in Rabbit Aqueous Humor
Excerpt: as §1, §2, §3, §4, §5, §6

T4 sequence (P41968 whole entry): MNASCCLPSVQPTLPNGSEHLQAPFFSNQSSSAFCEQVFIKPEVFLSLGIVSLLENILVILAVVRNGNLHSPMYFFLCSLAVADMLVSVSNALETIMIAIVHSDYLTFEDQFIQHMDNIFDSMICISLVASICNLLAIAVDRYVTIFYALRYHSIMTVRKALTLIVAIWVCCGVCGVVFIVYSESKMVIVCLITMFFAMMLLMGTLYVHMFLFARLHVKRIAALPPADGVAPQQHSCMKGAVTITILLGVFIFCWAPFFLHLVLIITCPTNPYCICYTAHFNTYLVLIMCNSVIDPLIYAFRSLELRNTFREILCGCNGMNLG
T1 sequence (P32245 whole entry): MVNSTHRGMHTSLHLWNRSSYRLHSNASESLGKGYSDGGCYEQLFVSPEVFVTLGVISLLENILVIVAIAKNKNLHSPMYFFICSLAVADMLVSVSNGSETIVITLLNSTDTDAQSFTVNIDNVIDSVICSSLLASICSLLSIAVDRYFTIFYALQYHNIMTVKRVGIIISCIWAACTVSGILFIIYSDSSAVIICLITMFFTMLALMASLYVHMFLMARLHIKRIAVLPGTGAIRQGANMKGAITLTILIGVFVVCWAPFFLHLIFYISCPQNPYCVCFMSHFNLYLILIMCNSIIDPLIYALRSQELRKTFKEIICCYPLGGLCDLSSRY
T3 sequence (Q01726 whole entry): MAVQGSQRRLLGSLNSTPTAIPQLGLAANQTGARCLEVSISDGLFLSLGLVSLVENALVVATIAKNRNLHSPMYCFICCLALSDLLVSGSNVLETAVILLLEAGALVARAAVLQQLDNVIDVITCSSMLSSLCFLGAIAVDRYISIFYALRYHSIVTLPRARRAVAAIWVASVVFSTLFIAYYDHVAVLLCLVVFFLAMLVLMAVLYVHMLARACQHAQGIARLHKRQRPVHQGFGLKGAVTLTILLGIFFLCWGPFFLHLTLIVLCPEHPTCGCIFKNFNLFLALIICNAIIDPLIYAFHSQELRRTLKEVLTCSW
T2 sequence (P33032 whole entry): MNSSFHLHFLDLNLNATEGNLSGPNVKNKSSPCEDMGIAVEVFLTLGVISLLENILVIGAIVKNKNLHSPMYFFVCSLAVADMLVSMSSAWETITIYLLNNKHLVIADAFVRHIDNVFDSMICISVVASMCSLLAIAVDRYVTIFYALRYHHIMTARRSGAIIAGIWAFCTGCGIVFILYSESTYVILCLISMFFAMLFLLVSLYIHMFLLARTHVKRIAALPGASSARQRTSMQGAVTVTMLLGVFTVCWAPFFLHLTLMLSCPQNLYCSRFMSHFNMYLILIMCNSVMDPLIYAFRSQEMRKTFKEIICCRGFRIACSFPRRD

IC50 (human recombinant MC5R; calcium flux functional assay)	IC50 (human recombinant MC1R)	IC50 (human recombinant MC3R)	SMILES	Topical Ocular Permeability (nM ± SEM) [1]	EC50 (human recombinant MC4R)	EC50 (human recombinant MC5R)	other results
25.2 nM	0.019 nM		CCCC[C@H](NC(C)=O)C(=O)N[C@H]1CCCCn2cc(nn2)C[C@@H](C(N)=O)NC(=O)[C@H](Cc2c[nH]c3ccccc23)NC(=O)[C@H](CCCNC(=N)N)NC(=O)[C@@H](Cc2ccc(F)cc2)NC(=O)[C@H](Cc2c[nH]cn2)NC1=O [KR-049, Ac-Nle-[Lys(N3)-His-Dphe(4-F)-Arg-Trp-Pra]-NH2] (Ac-[Nle][Lys(N3)]H[dPhe(4-F)]RW[Pra]-NH2; triazole 2-7)	23.9 ± 10.8 nM	16.1 nM	25.2 nM	EC50 (human recombinant MC1R): 0.019 nM; melanin binding ([3]; compared with K173 and K174): enhanced melanin binding; scleral and retinal exposure ([3]; compared with K173 and K174): decreased scleral and retinal exposure; corneal permeability ([3]; similar to rabbit study): enhanced corneal permeability; solubility [2]: 9950 µg/mL (≈ 9.33 mM)
> 10000 nM	> 50 nM	> 50 µM	CCCC[C@H](NC(C)=O)C(=O)N1CCC(=O)NCCN(CC(=O)N[C@@H](Cc2c[nH]c3ccccc23)C(N)=O)C(=O)[C@H](CCCNC(=N)N)NC(=O)[C@@H](Cc2ccccc2)NC(=O)[C@H](Cc2c[nH]cn2)NC(=O)C1 [KR-029, Ac-Nle-cyc(NGlu-His-DPhe-Arg-NDab)-Trp-NH2]				IC50 (human recombinant MC4R): > 1000 nM
		> 50 µM	CSCC[C@H](NC(=O)[C@H](CO)NC(=O)[C@H](Cc1ccc(O)cc1)NC(=O)[C@H](CO)NC(C)=O)C(=O)N[C@@H](CCC(=O)O)C(=O)N[C@@H](Cc1c[nH]cn1)C(=O)N(C)[C@H](Cc1ccccc1)C(=O)N[C@@H](CCCNC(=N)N)C(=O)N[C@@H](Cc1c[nH]c2ccccc12)C(=O)NCC(=O)N[C@@H](CCCCN)C(=O)N1CCC[C@H]1C(=O)N[C@H](C(N)=O)C(C)C [KR-025, Ac-Ser-Tyr-Ser-Met-Glu-His-(D-NMePhe)-Arg-Trp-Gly-Lys-Pro-Val-NH2]				
195 nM	2.68 nM	> 50 µM	CCCC[C@H](NC(C)=O)C(=O)N[C@H]1CCCCn2cc(nn2)C[C@@H](C(N)=O)NC(=O)[C@H](Cc2c[nH]c3ccccc23)NC(=O)[C@H](CCCNC(=N)N)N(C)C(=O)[C@@H](Cc2ccccc2)NC(=O)[C@H](Cc2c[nH]cn2)N(C)C1=O [KR-052, Ac-Nle-[Lys(N3)-NMeHis-DPhe-NMeArg-Trp-Pra]-NH2] (Ac-[Nle][Lys(N3)][NMeH][dF][NMeR]W[Pra]-NH2; triazole 2-7)				IC50 (human recombinant MC4R): 122 nM
195 nM	2.68 nM	> 50 µM	CCCC[C@H](NC(C)=O)C(=O)N[C@H]1CCCCn2cc(nn2)C[C@@H](C(=O)N[C@@H](CCCCN)C(N)=O)NC(=O)[C@H](Cc2c[nH]c3ccccc23)NC(=O)[C@H](CCCNC(=N)N)NC(=O)[C@@H](Cc2ccc(OC)cc2)NC(=O)[C@H](Cc2c[nH]cn2)NC1=O [KR-058, Ac-Nle-[Lys(N3)-His-DTyr(Me)-Arg-Trp-Pra]-Lys-NH2] (Ac-[Nle][Lys(N3)]H[dY](Me)RW[Pra]K-NH2; triazole 2-7)				IC50 (human recombinant MC4R): 122 nM
	> 50 nM	> 50 µM	CCCC[C@H](NC(C)=O)C(=O)N[C@H]1CCCCn2cc(nn2)C[C@@H](C(N)=O)NC(=O)[C@H](Cc2c[nH]c3ccccc23)NC(=O)[C@H](CCCNC(=N)N)NC(=O)[C@@H](Cc2ccccc2)N(C)C(=O)[C@H](Cc2c[nH]cn2)NC1=O [KR-044, Ac-Nle-[Lys(N3)-His-(NMe-Dphe)-Arg-Trp-Pra]-NH2] (Ac-[Nle][Lys(N3)]H[dNMeF]RW[Pra]-NH2; triazole 2-7)				
		> 50 µM	CCCC[C@H](NC(C)=O)C(=O)N[C@H]1CCCCn2cc(nn2)C[C@@H](C(N)=O)NC(=O)[C@H](Cc2c[nH]c3ccccc23)NC(=O)[C@H](CCCNC(=N)N)NC(=O)[C@@H](Cc2ccc(C(F)(F)F)cc2)NC(=O)[C@H](Cc2c[nH]cn2)NC1=O [KR-048, Ac-Nle-[Lys(N3)-His-Dphe(4-CF3)-Arg-Trp-Pra]-NH2] (Ac-[Nle][Lys(N3)]H[dPhe(4-CF3)]RW[Pra]-NH2; triazole 2-7)				

The remaining lines, values behind:

SMILES	IC50 (human recombinant MC5R; calcium flux functional assay)	IC50 (human recombinant MC1R)	IC50 (human recombinant MC3R)	Topical Ocular Permeability (nM ± SEM) [1]	EC50 (human recombinant MC4R)	EC50 (human recombinant MC5R)	other results
CCCC[C@H](NC(C)=O)C(=O)N[C@H]1CCCCn2cc(nn2)C[C@@H](C(N)=O)NC(=O)[C@H](Cc2c[nH]c3ccccc23)NC(=O)[C@H](CCCNC(=N)N)NC(=O)[C@@H](Cc2ccccc2)NC(=O)[C@H](Cc2cnc[nH]2)NC1=O [KR-009, Ac-Nle-[Lys(N3)-His-DPhe-Arg-Trp-Pra]-NH2] (Ac-[Nle][Lys(N3)]H[dF]RW[Pra]-NH2; triazole 2-7)	140 nM			1.43 ± 1.01 nM	45.7 nM	140 nM	solubility [2]: > 5000 µg/mL
CCCC[C@H](NC(=O)c1cc(O)cc(O)c1)C(=O)N[C@H]1CCCCn2cc(nn2)C[C@@H](C(N)=O)NC(=O)[C@H](Cc2c[nH]c3ccccc23)NC(=O)[C@H](CCCNC(=N)N)NC(=O)[C@@H](Cc2ccccc2)NC(=O)[C@H](Cc2c[nH]cn2)NC1=O [KR-073, HyBA-Nle-[Lys(N3)-His-DPhe-Arg-Trp-Pra]-NH2] ({Benzoyl(3,5-(OH)2)}-[Nle][Lys(N3)]H[dF]RW[Pra]-NH2; triazole 2-7)	134 nM	0.0041 nM		12.3 ± 3.8 nM	13.9 nM	134 nM	EC50 (human recombinant MC1R): 0.0041 nM; solubility ([2]; Table 8, read-out: Solubility): 7690 µg/mL (≈ 6.73 mM)
CCCC[C@H](NC(=O)c1cc(O)cc(O)c1)C(=O)N[C@H]1CCCCn2cc(nn2)C[C@@H](C(=O)N[C@@H](CCCC(N)=O)C(N)=O)NC(=O)[C@H](Cc2c[nH]c3ccccc23)NC(=O)[C@H](CCCNC(=N)N)NC(=O)[C@@H](Cc2ccc(F)cc2)NC(=O)[C@H](Cc2c[nH]cn2)NC1=O [KR-071, HyBA-Nle-[Lys(N3)-His-Dphe(4-F)-Arg-Trp-Pra]-Hgln-NH2] ({Benzoyl(3,5-(OH)2)}-[Nle][Lys(N3)]H[dPhe(4-F)]RW[Pra][Aad](NH2)-NH2; triazole 2-7)	73.9 nM	0.0023 nM		2.5 ± 0.2 nM	103 nM	73.9 nM	level at 0.5 h (in vivo): 2.84 ng/mL; EC50 (human recombinant MC1R): 0.0023 nM; solubility ([2]; Table 8, read-out: Solubility): 6100 µg/mL (≈ 4.68 mM)
N=C(N)NCCC[C@@H]1NC(=O)[C@H](Cc2ccccc2)NC(=O)[C@H](Cc2c[nH]cn2)NC(=O)[C@H](CCC(=O)O)NC(=O)CSC[C@@H](C(N)=O)NC(=O)[C@H](Cc2c[nH]c3ccccc23)NC1=O [KR-011, Cyclo(-Ac-Glu-His-Phe-Arg-Trp-Cys)-NH2] ({CH2CO}-EHFRWC-NH2; thioether N-6 (inferred))			> 50 µM				MC5R IC50 (human recombinant MC5R; calcium flux functional assay): Not fit
CSCC[C@H](NC(=O)[C@H](CO)NC(=O)[C@H](Cc1ccc(O)cc1)NC(=O)[C@H](CO)NC(C)=O)C(=O)N[C@@H](CCC(=O)O)C(=O)N[C@@H](Cc1c[nH]cn1)C(=O)N(C)[C@@H](Cc1ccccc1)C(=O)N[C@@H](CCCNC(=N)N)C(=O)N[C@@H](Cc1c[nH]c2ccccc12)C(=O)NCC(=O)N[C@@H](CCCCN)C(=O)N1CCC[C@H]1C(=O)N[C@H](C(N)=O)C(C)C [KR-022, Ac-Ser-Tyr-Ser-Met-Glu-His-(NMe-Phe)-Arg-Trp-Gly-Lys-Pro-Val-NH2]		> 200 nM	> 50 µM				
